The results in this text go back to ChEMBL document CHEMBL5214930, “Discovery of the First Selective IDO2 Inhibitor As Novel Immunotherapeutic Avenues for Rheumatoid Arthritis” (J Med Chem, 2022).

In test [1] the target is Indoleamine 2,3-dioxygenase 1 (Homo sapiens, UniProt P14902). The test is described as follows: Inhibition of recombinant human IDO1 in HeLa cells at 100 nM relative to control. The class given is cell-based.
In test [2] the target is T1, Indoleamine 2,3-dioxygenase 2 (Homo sapiens) (UniProt Q6ZQW0).
T1 sequence (whole entry): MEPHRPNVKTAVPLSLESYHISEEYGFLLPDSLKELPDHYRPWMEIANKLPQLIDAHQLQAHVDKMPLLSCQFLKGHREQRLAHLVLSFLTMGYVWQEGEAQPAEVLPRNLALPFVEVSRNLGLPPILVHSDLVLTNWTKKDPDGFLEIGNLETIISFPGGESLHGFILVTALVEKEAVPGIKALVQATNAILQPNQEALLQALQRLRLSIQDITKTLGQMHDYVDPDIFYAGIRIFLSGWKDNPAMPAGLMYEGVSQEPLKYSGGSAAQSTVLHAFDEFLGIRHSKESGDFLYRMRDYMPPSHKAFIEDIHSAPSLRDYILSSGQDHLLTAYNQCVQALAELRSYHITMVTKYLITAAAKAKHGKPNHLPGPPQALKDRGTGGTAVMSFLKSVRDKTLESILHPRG
In words: Inhibition of recombinant human IDO2 in HeLa cells at […] relative to control. The format is cell-based.

Test [3] deals with HeLa. The test is described as follows: Antiproliferative activity against human HeLa cells. The format is functional, cell-based.
Test [4] concerns the target T1, Indoleamine 2,3-dioxygenase 2 (Homo sapiens). The test is described as follows: Inhibition of recombinant human IDO2 in HeLa cells at 100 nM relative to control. The format is cell-based.

Chain of Indoleamine 2,3-dioxygenase 1 (P14902 whole entry, looked up): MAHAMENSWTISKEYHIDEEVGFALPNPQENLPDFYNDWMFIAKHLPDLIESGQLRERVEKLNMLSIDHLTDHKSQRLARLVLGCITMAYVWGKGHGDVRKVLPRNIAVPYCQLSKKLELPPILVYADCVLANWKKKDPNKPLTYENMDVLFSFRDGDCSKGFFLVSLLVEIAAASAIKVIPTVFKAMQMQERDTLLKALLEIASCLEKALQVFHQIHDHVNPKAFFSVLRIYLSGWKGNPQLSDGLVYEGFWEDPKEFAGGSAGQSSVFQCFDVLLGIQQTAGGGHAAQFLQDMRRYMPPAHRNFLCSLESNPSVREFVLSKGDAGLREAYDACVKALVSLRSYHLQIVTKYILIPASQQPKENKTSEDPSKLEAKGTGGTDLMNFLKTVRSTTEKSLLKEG

With `O=C(NCc1cn(CCNc2nonc2/C(=N/O)Nc2cccc(Cl)c2)nn1)c1ccccn1`, the inhibition in test [1] turned out to be 69%; in test [2], 15%. The molecule also returned a concentration giving a half-maximal response (EC50) in test [3] of 106 nM.

`O=C(NCc1cn(CCNc2nonc2/C(=N/O)NCc2ccc(F)c(Br)c2)nn1)c1ccccn1`: the results for the inhibition in test [1] and in test [2] were 26% and 5%, respectively. In test [3], this molecule came in with a half-maximal effective concentration (EC50) of 1790 nM.

In the case of `O=C(NCc1cn(CCNc2nonc2/C(=N/O)Nc2cc(Br)cc(C(F)(F)F)c2)nn1)c1ccccn1`, the inhibition stood at 5% in test [1] and 23% in test [2]. Further, the EC50 in test [3] is 3630 nM.

Consider `O=C(NCc1cn(CCNc2nonc2/C(=N/O)NCc2ccc(F)cc2)nn1)c1ccccn1`, for which the inhibition in test [1] is 7%; in test [2], 0%. Besides, in test [3], the concentration for a half-maximal effect (EC50) was determined as 1080 nM.

In the case of `O=C(NCc1cn(CCNc2nonc2/C(=N/O)NCc2ccc(Br)cc2)nn1)c1ccc[nH]1`, the inhibition in test [1] amounted to 4%; in test [2] it was 0%. In addition, the 50% effective concentration (EC50) in test [3] was 2630 nM.

With `O=C(NCc1cn(CCNc2nonc2/C(=N/O)Nc2cc(Br)cc(Br)c2)nn1)c1ccccn1`, the inhibition in test [1] amounted to 11%; in test [4], 15%; in test [2] it was 52%. The same molecule registered an EC50 in test [3] of 1450 nM.

Take `O=C(NCc1cn(CCNc2nonc2/C(=N/O)Nc2ccc(F)c(Cl)c2)nn1)c1ccccn1`: the inhibition stood at 52% in test [1], 16% in test [4] and 38% in test [2]. This molecule had an EC50 in test [3] of 234 nM.

Turning to `O=C(NCc1cn(CCNc2nonc2/C(=N/O)NCc2ccc(F)c(Br)c2)nn1)c1ccc[nH]1`, the inhibition in test [1] is 17%; in test [2], 0%. The molecule further showed a 50% effective concentration (EC50) in test [3] of 1600 nM.

Take `O=C(NCc1cn(CCNc2nonc2/C(=N/O)NCc2ccc(F)cc2)nn1)c1ccc[nH]1`: the values for the inhibition in test [1] and in test [2] were 9% and 10%, respectively. Besides, the midpoint of the response in test [3], the EC50, lay at 1210 nM.

On to `O=C(NCc1cn(CCNc2nonc2/C(=N/O)Nc2ccc(F)cc2)nn1)c1ccccn1`, for which the inhibition in test [1] stood at 4%; in test [4], 5%; in test [2] it was 30%. In test [3], this molecule yielded an EC50 of 1380 nM.

In the case of `O=C(NCc1cn(CCNc2nonc2/C(=N/O)NCc2cccc(Br)c2)nn1)c1ccc[nH]1`, the inhibition in test [1] is 12%; in test [4], 24%; in test [2] it was 70%. A half-maximal effect in test [3] (EC50) was put at 835 nM.

Consider `Cc1cc(Br)cc(N/C(=N\O)c2nonc2NCCn2cc(CNC(=O)c3ccccn3)nn2)c1`, for which the inhibition in test [1] was found to be 20%; in test [4], 14%; in test [2], 61%. Further, in test [3], a half-maximal effect (EC50) was put at 611 nM.

On to `O=C(NCc1cn(CCNc2nonc2/C(=N/O)Nc2ccc(F)c(C(F)(F)F)c2)nn1)c1ccccn1`, for which the inhibition was 44% in test [1], 6% in test [4] and 40% in test [2]. This molecule returned an EC50 in test [3] of 456 nM.

For `Cc1ccc(Br)cc1N/C(=N\O)c1nonc1NCCn1cc(CNC(=O)c2ccccn2)nn1`, the inhibition in test [1] stood at 18%; in test [4] it was 15%; in test [2], 41%. The same molecule yielded a 50% effective concentration (EC50) in test [3] of 663 nM.

Consider `O=C(NCc1cn(CCNc2nonc2/C(=N/O)NCc2ccccc2Br)nn1)c1ccc[nH]1`, for which the results for the inhibition in test [1] and in test [2] were 1% and 4%, respectively. The EC50 in test [3] stood at 2850 nM.

Take `O=C(NCc1cn(CCNc2nonc2/C(=N/O)NCc2ccccc2Br)nn1)c1ccccn1`: the inhibition in test [1] turned out to be 5%; in test [2], 2%. In test [3], this molecule registered an EC50 of 4350 nM.

As for `O=C(NCc1cn(CCNc2nonc2/C(=N/O)NCc2ccc(Br)cc2)nn1)c1ccccn1`, the inhibition in test [1] came out at 0%; in test [2], 1%. This molecule also had a concentration for a half-maximal effect (EC50) in test [3] of 3420 nM.
